Measurements from patent US10149879B2 (priority 2014, dated 2018).

Columns and labels:
[1] = tested on: βTC6 insulinoma cell; assay: Anti-oxidant activity in βTC6 insulinoma cell challenged with H2O2; format: cell-based; design: Anti-oxidant activity, cells challenged with H2O2: unit not given here; settings: for Anti-oxidant activity, cells challenged with H2O2: βTC6
Source text: Anti-Oxidant Activity in βTC6 Insulinoma Cell Challenged with H2O2 Berberin and Quercetin—
Anti-Oxidant Activity in βTC6 Insulinoma Cell Challenged with H2O2 Berberin and Palmatine—

[2] = tested on: 3T3-L1 cells; assay: Anti-oxidant activity in 3T3-L1 cells challenged with H2O2; format: cell-based; design: Anti-oxidant activity, cells challenged with H2O2: scale not given here; settings: for Anti-oxidant activity, cells challenged with H2O2: 3T3-L1; for protection against H2O2 induced cellular oxidative damage: 3T3-L1 cells
Source text: Anti-Oxidant Activity in 3T3-L1 Cells Challenged with H2O2 Berberin and Palmatine
Anti-Oxidant Activity in 3T3-L1 Cells Challenged with H2O2 Berberin and Quercetin

[3] = tested on: 3T3-L1 cells; assay: Cell viability assay in 3T3-L1 cells; settings: for Cell viability: 3T3-L1, control 100.00
[4] = tested on: nor-epinephrine, serotonin and dopamine in whole brain; settings: mice; acute administration 5 mg/kg ip; cited from earlier work
[5] = tested on: βTC6 insulinoma cell; assay: Cell viability assay in βTC6 insulinoma cell line; format: cell-based; settings: for Cell viability: βTC6, control 100.00
Source text: Cell Viability Assay in βTC6 Insulinoma Cell Lime Following—

SMILES: COc1ccc2cc3[n+](cc2c1OC)CCc1cc2c(cc1-3)OCO2 [Berberin]
- Anti-oxidant activity, cells challenged with H2O2 ([1]; Co-incubated, 1 pM, control 55.54): 54.53 ± 1.67
- Anti-oxidant activity, cells challenged with H2O2 ([1]; Co-incubated, 1 pg/ml, control 55.64): 59.70 ± 2.00
- Anti-oxidant activity, cells challenged with H2O2 ([1]; Co-incubated, 10 pM, control 55.54): 54.79 ± 2.95
- Anti-oxidant activity, cells challenged with H2O2 ([1]; Co-incubated, 10 pg/ml, control 55.64): 64.14 ± 2.04
- Anti-oxidant activity, cells challenged with H2O2 ([1]; Co-incubated, 100 pg/ml, control 55.64): 67.40 ± 1.43
- Anti-oxidant activity, cells challenged with H2O2 ([1]; Co-incubated, 0.1 nM, control 55.54): 56.02 ± 2.82
- Anti-oxidant activity, cells challenged with H2O2 ([1]; Co-incubated, 1 nM, control 55.54): 59.80 ± 1.30
- Anti-oxidant activity, cells challenged with H2O2 ([1]; Co-incubated, 1 ng/ml, control 55.64): 76.57 ± 1.50
- Anti-oxidant activity, cells challenged with H2O2 ([1]; Co-incubated, 10 nM, control 55.54): 60.75 ± 2.16
- Anti-oxidant activity, cells challenged with H2O2 ([1]; Co-incubated, 10 ng/ml, control 55.64): 85.90 ± 2.00
- Anti-oxidant activity, cells challenged with H2O2 ([1]; Pre-incubate, 1 pg/ml, control 55.64): 61.60 ± 2.00
- Anti-oxidant activity, cells challenged with H2O2 ([1]; Pre-incubate, 10 pg/ml, control 55.64): 65.18 ± 1.98
- Anti-oxidant activity, cells challenged with H2O2 ([1]; Pre-incubate, 100 pg/ml, control 55.64): 67.05 ± 2.45
- Anti-oxidant activity, cells challenged with H2O2 ([1]; Pre-incubate, 1 ng/ml, control 55.64): 74.40 ± 1.40
- Anti-oxidant activity, cells challenged with H2O2 ([1]; Pre-incubate, 10 ng/ml, control 55.64): 77.69 ± 2.10
- Anti-oxidant activity, cells challenged with H2O2 ([1]; Pre-incubated, 1 pM, control 55.54): 57.52 ± 0.80
- Anti-oxidant activity, cells challenged with H2O2 ([1]; Pre-incubated, 10 pM, control 55.54): 58.90 ± 2.87
- Anti-oxidant activity, cells challenged with H2O2 ([1]; Pre-incubated, 0.1 nM, control 55.54): 60.12 ± 3.40
- Anti-oxidant activity, cells challenged with H2O2 ([1]; Pre-incubated, 1 nM, control 55.54): 61.70 ± 1.60
- Anti-oxidant activity, cells challenged with H2O2 ([1]; Pre-incubated, 10 nM, control 55.54): 64.20 ± 1.65
- anti-oxidant activity ([1]; βTC6 cells challenged with hydrogen peroxide): potent anti-oxidant activity
- protection against H2O2 induced cellular oxidative damage ([1]; βTC6 insulinoma cells): Mild Protection
- Anti-oxidant activity, cells challenged with H2O2 ([2]; Co-incubated, 10 pM, control 50.00): 56.00 ± 3.35
- Anti-oxidant activity, cells challenged with H2O2 ([2]; Co-incubated, 10 pg/ml, control 49.00): 53.00 ± 2.50
- Anti-oxidant activity, cells challenged with H2O2 ([2]; Co-incubated, 100 pM, control 50.00): 58.96 ± 1.20
- Anti-oxidant activity, cells challenged with H2O2 ([2]; Co-incubated, 100 pg/ml, control 49.00): 57.80 ± 2.50
- Anti-oxidant activity, cells challenged with H2O2 ([2]; Co-incubated, 1 nM, control 50.00): 61.80 ± 1.80
- Anti-oxidant activity, cells challenged with H2O2 ([2]; Co-incubated, 1 ng/ml, control 49.00): 65.15 ± 1.99
- Anti-oxidant activity, cells challenged with H2O2 ([2]; Co-incubated, 10 nM, control 50.00): 63.00 ± 1.60
- Anti-oxidant activity, cells challenged with H2O2 ([2]; Co-incubated, 100 nM, control 50.00): 63.38 ± 2.10
- Anti-oxidant activity, cells challenged with H2O2 ([2]; Co-incubated, 100 ng/ml (first of two lines so printed, r7), control 49.00): 70.80 ± 3.25
- Anti-oxidant activity, cells challenged with H2O2 ([2]; Co-incubated, 100 ng/ml (second line, r8), control 49.00): 77.50 ± 2.95
- Anti-oxidant activity, cells challenged with H2O2 ([2]; Pre-incubated, 10 pM, control 50.00): 52.01 ± 2.80
- Anti-oxidant activity, cells challenged with H2O2 ([2]; Pre-incubated, 10 pg/ml, control 49.00): 55.00 ± 2.00
- Anti-oxidant activity, cells challenged with H2O2 ([2]; Pre-incubated, 100 pM, control 50.00): 55.76 ± 2.80
- Anti-oxidant activity, cells challenged with H2O2 ([2]; Pre-incubated, 100 pg/ml, control 49.00): 58.00 ± 1.70
- Anti-oxidant activity, cells challenged with H2O2 ([2]; Pre-incubated, 1 nM, control 50.00): 59.95 ± 2.10
- Anti-oxidant activity, cells challenged with H2O2 ([2]; Pre-incubated, 1 ng/ml, control 49.00): 64.00 ± 1.90
- Anti-oxidant activity, cells challenged with H2O2 ([2]; Pre-incubated, 10 nM, control 50.00): 61.13 ± 1.05
- Anti-oxidant activity, cells challenged with H2O2 ([2]; Pre-incubated, 100 nM, control 50.00): 64.25 ± 2.30
- Anti-oxidant activity, cells challenged with H2O2 ([2]; Pre-incubated, 100 ng/ml (first of two lines so printed, r7), control 49.00): 67.40 ± 3.70
- Anti-oxidant activity, cells challenged with H2O2 ([2]; Pre-incubated, 100 ng/ml (second line, r8), control 49.00): 75.00 ± 4.15
- protection against H2O2 induced cellular oxidative damage ([2]; comparison with positive standard): potent protection
- protection against H2O2 induced cellular oxidative damage ([2]; pM-nM doses): mild protection
- Cell viability ([3]; 10 pM): 99.50 ± 1.50
- Cell viability ([3]; 100 pM): 99.99 ± 2.80
- Cell viability ([3]; 1 nM): 99.88 ± 0.91
- Cell viability ([3]; 10 nM): 98.25 ± 1.20
- Cell viability ([3]; 100 nM): 97.69 ± 1.09
- Cell viability ([3]; 1 μM): 90.68 ± 2.05
- Cell viability ([3]; 10 μM): 75.12 ± 2.85
- Cell viability ([3]; 100 μM): 62.54 ± 4.20
- toxicity to the cell ([3]; 3T3-L1 cells, 1 μM): non-toxic
- increased level of dopamine in whole brain [4]: 31%
- increased level of nor-epinephrine in whole brain [4]: 31%
- increased level of serotonin in whole brain [4]: 47%
- Cell viability ([5]; 1 pM): 97.95 ± 1.12
- Cell viability ([5]; 10 pM): 96.99 ± 2.20
- Cell viability ([5]; 100 pM): 94.60 ± 2.45
- Cell viability ([5]; 1 nM): 90.89 ± 1.42
- Cell viability ([5]; 10 nM): 88.65 ± 2.60
- Cell viability ([5]; 100 nM): 86.30 ± 1.67
- Cell viability ([5]; 1 μM): 73.75 ± 2.90
- Cell viability ([5]; 10 μM): 67.89 ± 1.65
- toxicity to the cells ([5]; βTC6 insulinoma cells, 10 ng/ml): non-toxic
